Data as given in patent EP4755888A1 (ILAb Co., Ltd., priority 2023, dated 2025).

Biological target: PD-1/PD-L1 (Homo sapiens, UniProt Q9NZQ7)
Experiment: TR-FRET PD-1/PD-L1 binding inhibition at the molecular level (free proteins)
Conditions: Tag1-PD-L1 and Tag2-PD-1 proteins, twelve concentrations from 200 nM, 2 hours at room temperature, read-out: FRET assay (IC50)
Procedure: In order to evaluate the inhibitory activity of the compounds synthesized according to the above Preparation Examples against PD-1/PD-L1 molecules in a free protein state,a TR-FRET (Time-Resolved Fluorescence Energy Transfer) experimetn was performed as described below.
Specifically, the compounds were prepared in a 96-well plate by serial dilution starting from 200 nM with 1/2 dilutions to obtain a total of twelve concentrations, and 2 µL of each compound solution was added to a 384-well plate. Thereafter, Tag1-PD-L1 protein and Tag2-PD-1 protein were each prepared at a 1x concentration, mixed at a ratio of 1:1, and 8 µL of the mixed solution was added to each well of the 384-well plate containing the compounds. Anti-Tag1 Eu Cryptate reagent and Anti-Tag2 XL665 antibody were each prepared at a 1* concentration, mixed at a ratio of 1:1, and 10 µL of the mixed solution was added to each well of the 384-well plate containing the compounds and proteins, followed by incubation at room temperature for 2 hours. Upon completion of the reaction, fluorescence signals at wavelengths of 620 nm and 665 nm were measured using a microplate reader.

Chain of PD-1/PD-L1 (Q9NZQ7 19-238 limits assumed): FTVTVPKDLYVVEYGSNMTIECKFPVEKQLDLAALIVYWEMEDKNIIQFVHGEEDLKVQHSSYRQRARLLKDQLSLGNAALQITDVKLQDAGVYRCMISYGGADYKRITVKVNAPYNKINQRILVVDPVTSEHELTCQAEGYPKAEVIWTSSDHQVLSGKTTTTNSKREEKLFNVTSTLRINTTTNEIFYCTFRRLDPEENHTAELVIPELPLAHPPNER

| SMILES | IC50 [nM] |
| --- | --- |
| Cc1c(Nc2nccc3cc(CN4CC[C@@H](O)C4)cnc23)cccc1-c1cccc(NC(=O)c2cc3n(n2)CCCC3N2CCC(O)CC2)c1Cl (stereo partly drawn) [Compound 34, N-(2-chloro-3'-((3-(((R)-3-hydroxypyrrolidin-1-yl)methyl)-1,7-naphthyridin-8-yl)amino)-2'-methyl-[1,1'-biphenyl]-3-yl)-4-(4-hydroxypiperidin-1-yl)-4,5,6,7-tetrahydropyrazolo[1,5-a]pyridine-2-carboxamide] | 10 to 100 |
| Cc1c(Nc2nccc3cc(CN4CC[C@@H](O)C4)cnc23)cccc1-c1cccc(NC(=O)c2cc3n(n2)CCCC3N2CCC(C(=O)O)CC2)c1Cl (stereo partly drawn) [Compound 35, 1-(2-((2-chloro-3'-((3-(((R)-3-hydroxypyrrolidin-1-yl)methyl)-1,7-naphthyridin-8-yl)amino)-2'-methyl-[1,1'-biphenyl]-3-yl)carbamoyl)-4,5,6,7-tetrahydropyrazolo[1,5-a]pyridin-4-yl)piperidine-4-carboxylic acid] | < 10 |
| Cc1c(Nc2nccc3cc(CN4CC[C@@H](O)C4)cnc23)cccc1-c1cccc(NC(=O)c2cc3n(n2)CCCC3O)c1Cl (stereo partly drawn) [Compound 36, N-(2-chloro-3'-((3-(((R)-3-hydroxypyrrolidin-1-yl)methyl)-1,7-naphthyridin-8-yl)amino)-2'-methyl-[1,1'-biphenyl]-3-yl)-4-hydroxy-4,5,6,7-tetrahydropyrazolo[1,5-a]pyridine-2-carboxamide] | 10 to 100 |
| Cc1c(NC(=O)c2cc3n(n2)CCCC3NCCO)cccc1-c1cccc(Nc2nccc3cc(CN4CC[C@@H](O)C4)cnc23)c1Cl (stereo partly drawn) [Compound 37, N-(2'-chloro-3'-((3-(((R)-3-hydroxypyrrolidin-1-yl)methyl)-1,7-naphthyridin-8-yl)amino)-2-methyl-[1,1'-biphenyl]-3-yl)-4-((2-hydroxyethyl)amino)-4,5,6,7-tetrahydropyrazolo[1,5-a]pyridine-2-carboxamide] | < 10 |
| Cc1c(NC(=O)c2cc3n(n2)CCCC3N2CC[C@@H](O)C2)cccc1-c1cccc(Nc2nccc3cc(CN4CC[C@@H](O)C4)cnc23)c1Cl (stereo partly drawn) [Compound 38, N-(2'-chloro-3'-((3-(((R)-3-hydroxypyrrolidin-1-yl)methyl)-1,7-naphthyridin-8-yl)amino)-2-methyl-[1,1'-biphenyl]-3-yl)-4-((R)-3-hydroxypyrrolidin-1-yl)-4,5,6,7-tetrahydropyrazolo[1,5-a]pyridine-2-carboxamide] | 10 to 100 |
| CC(=O)NCCNC1CCCn2nc(C(=O)Nc3cccc(-c4cccc(Nc5nccc6cc(CN7CC[C@@H](O)C7)cnc56)c4Cl)c3C)cc21 (stereo partly drawn) [Compound 39, 4-((2-acetamidoethyl)amino)-N-(2'-chloro-3'-((3-(((R)-3-hydroxypyrrolidin-1-yl)methyl)-1,7-naphthyridin-8-yl)amino)-2-methyl-[1,1'-biphenyl]-3-yl)-4,5,6,7-tetrahydropyrazolo[1,5-a]pyridine-2-carboxamide] | < 10 |
| Cc1c(NC(=O)c2cc3n(n2)CCCC3NC[C@@H]2CCC(=O)N2)cccc1-c1cccc(Nc2nccc3cc(CN4CC[C@@H](O)C4)cnc23)c1Cl (stereo partly drawn) [Compound 40, N-(2'-chloro-3'-((3-(((R)-3-hydroxypyrrolidin-1-yl)methyl)-1,7-naphthyridin-8-yl)amino)-2-methyl-[1,1'-biphenyl]-3-yl)-4-((((S)-5-oxopyrrolidin-2-yl)methyl)amino)-4,5,6,7-tetrahydropyrazolo[1,5-a]pyridine-2-carboxamide] | 10 to 100 |
| Cc1c(NC(=O)c2cc3n(n2)CCCC3NCC(=O)O)cccc1-c1cccc(Nc2nccc3cc(CN4CC[C@@H](O)C4)cnc23)c1Cl (stereo partly drawn) [Compound 41, 2-((2-((2'-chloro-3'-((3-(((R)-3-hydroxypyrrolidin-1-yl)methyl)-1,7-naphthyridin-8-yl)amino)-2-methyl-[1,1'-biphenyl]-3-yl)carbamoyl)-4,5,6,7-tetrahydropyrazolo[1,5-a]pyridin-4-yl)amino)acetic acid] | < 10 |
| Cc1c(NC(=O)c2cc3n(n2)CCCC3N2CC[C@@H](C(=O)O)C2)cccc1-c1cccc(Nc2nccc3cc(CN4CC[C@@H](O)C4)cnc23)c1Cl (stereo partly drawn) [Compound 42, (3R)-1-(2-((2'-chloro-3'-((3-(((R)-3-hydroxypyrrolidin-1-yl)methyl)-1,7-naphthyridin-8-yl)amino)-2-methyl-[1,1'-biphenyl]-3-yl)carbamoyl)-4,5,6,7-tetrahydropyrazolo[1,5-a]pyridin-4-yl)pyrrolidine-3-carboxylic acid] | < 10 |
| Cc1c(NC(=O)c2cc3n(n2)CCCC3N2CCC(C(=O)O)CC2)cccc1-c1cccc(Nc2nccc3cc(CN4CC[C@@H](O)C4)cnc23)c1Cl (stereo partly drawn) [Compound 44, 1-(2-((2'-chloro-3'-((3-(((R)-3-hydroxypyrrolidin-1-yl)methyl)-1,7-naphthyridin-8-yl)amino)-2-methyl-[1,1'-biphenyl]-3-yl)carbamoyl)-4,5,6,7-tetrahydropyrazolo[1,5-a]pyridin-4-yl)piperidine-4-carboxylic acid] | 10 to 100 |
| Cc1c(NC(=O)c2cc3n(n2)CCCC3O)cccc1-c1cccc(NC(=O)c2nc3c(n2C)CCN(CCC24CCC(C(=O)O)(CC2)C4)C3)c1C (centres unmarked) [Compound 45, 4-(2-(2-((3'-(4-hydroxy-4,5,6,7-tetrahydropyrazolo[1,5-a]pyridine-2-carboxamido)-2,2'-dimethyl-[1,1'-biphenyl]-3-yl)carbamoyl)-1-methyl-6,7-dihydro-1H-imidazo[4,5-c]pyridin-5(4H)-yl)ethyl)bicyclo[2.2.1]heptane-1-carboxylic acid] | < 10 |
| CC(=O)NCCNC1CCCn2nc(C(=O)Nc3cccc(-c4cccc(NC(=O)c5nc6c(n5C)CCN(CCC57CCC(C(=O)O)(CC5)C7)C6)c4C)c3C)cc21 (centres unmarked) [Compound 46, 4-(2-(2-((3'-(4-((2-acetamidoethyl)amino)-4,5,6,7-tetrahydropyrazolo[1,5-a]pyridine-2-carboxamido)-2,2'-dimethyl-[1,1'-biphenyl]-3-yl)carbamoyl)-1-methyl-6,7-dihydro-1H-imidazo[4,5-c]pyridin-5(4H)-yl)ethyl)bicyclo[2.2.1]heptane-1-carboxylic acid] | < 10 |
| Cc1c(NC(=O)c2cc3n(n2)CCCC3N2CC[C@@H](O)C2)cccc1-c1cccc(NC(=O)c2nc3c(n2C)CCN(CCC24CCC(C(=O)O)(CC2)C4)C3)c1C (stereo partly drawn) [Compound 47, 4-(2-(2-((3'-(4-((R)-3-hydroxypyrrolidin-1-yl)-4,5,6,7-tetrahydropyrazolo[1,5-a]pyridine-2-carboxamido)-2,2'-dimethyl-[1,1'-biphenyl]-3-yl)carbamoyl)-1-methyl-6,7-dihydro-1H-imidazo[4,5-c]pyridin-5(4H)-yl)ethyl)bicyclo[2.2.1]heptane-1-carboxylic acid] | < 10 |
| Cc1c(NC(=O)c2cc3n(n2)CCCC3NCCO)cccc1-c1cccc(NC(=O)c2nc3c(n2C)CCN(CCC24CCC(C(=O)O)(CC2)C4)C3)c1C (centres unmarked) [Compound 48, 4-(2-(2-((3'-(4-((2-hydroxyethyl)amino)-4,5,6,7-tetrahydropyrazolo[1,5-a]pyridine-2-carboxamido)-2,2'-dimethyl-[1,1'-biphenyl]-3-yl)carbamoyl)-1-methyl-6,7-dihydro-1H-imidazo[4,5-c]pyridin-5(4H)-yl)ethyl)bicyclo[2.2.1]heptane-1-carboxylic acid] | < 10 |
